Legend:
Amylase = experiment: amylase storage stability in liquid laundry formulation (pNP release from Ethyliden-blocked-pNPG7); assay type: biochemical; set-up: key: % of activity in reference formulation at time 0; conditions: 2.5 wt % component (a), storage at 37° C.
Method: (§1) The storage stability of amylase was assessed at 37° C.
Base test formulations were manufactured by making base formulations VI to IX by mixing the components according to Table 4.
(§2) Amylase activity at certain points in time as indicated in Table 5 was measured quantitatively by the release of the chromophore para-nitrophenol (pNP) from the substrate (Ethyliden-blocked-pNPG7, Roche Applied Science 10880078103). The alpha-amylase degrades the substrate into smaller molecules and α-glucosidase (Roche Applied Science 11626329103), which is present in excess compared to the amylase, process these smaller products until pNP is released; the release of pNP, measured via an increase of absorption at 405 nm, is directly proportional to the amylase activity of the sample. Amylase standard: Termamyl 120 L (Sigma 3403).
(§3) The amylolytic activity values provided were calculated referring to the value determined in the reference formulation at the time 0.
(§4) The nomenclature of formulations is as follows: the Roman number before the full stop characterizes the base formulation, the Arabian number the type of compound (A.# compound according to invention (component (a)); B.# comparative compound).

[1] = system: Amy3=Stainzyme Plus L (12L); experiment: amylase storage stability in liquid formulation (pNP release from Ethyliden-blocked-pNPG7); assay type: biochemical; conditions: base formulation II., 1.5 wt % component (a), storage at 37° C.
Method: as §1
Base test formulations were manufactured by making base formulations I to V by mixing the components according to Table 1.
Amylases used: Amy1=Stainzyme, Amy2=Amplify, Amy3=Stainzyme Plus L (12L)
The respective component (a) or comparative compound was added, if applicable, to the respective base formulation in amounts as indicated in Table 1.
The amount of amylase as provided in Table 1 refers to active protein.
Water was added to accomplish the balance to 100.
as §2, with “Table 2” for “Table 5”
as §3, §4

[2] = laundry base formulation IX. (2.5 DTPA), 3 d
[3] = laundry base formulation IX. (2.5 DTPA), 7 d
[4] = laundry base formulation IX. (2.5 DTPA), 14 d
[5] = laundry base formulation IX. (2.5 DTPA), 21 d
[6] = laundry base formulation IX. (2.5 DTPA), 28 d
[7] = laundry base formulation IX. (2.5 DTPA), T0
[8] = laundry base formulation VI. (2.0 EDTA), 3 d
[9] = laundry base formulation VI. (2.0 EDTA), 7 d
[10] = laundry base formulation VI. (2.0 EDTA), 14 d
[11] = laundry base formulation VI. (2.0 EDTA), 21 d
[12] = laundry base formulation VI. (2.0 EDTA), 28 d
[13] = laundry base formulation VI. (2.0 EDTA), T0
[14] = laundry base formulation VII. (2.0 EDTA), 3 d
[15] = laundry base formulation VII. (2.0 EDTA), 7 d
[16] = laundry base formulation VII. (2.0 EDTA), 14 d
[17] = laundry base formulation VII. (2.0 EDTA), 21 d
[18] = laundry base formulation VII. (2.0 EDTA), 28 d
[19] = laundry base formulation VII. (2.0 EDTA), T0
[20] = laundry base formulation VIII. (2.5 DTPA, no Savinase), 3 d
[21] = laundry base formulation VIII. (2.5 DTPA, no Savinase), 7 d
[22] = laundry base formulation VIII. (2.5 DTPA, no Savinase), 14 d
[23] = laundry base formulation VIII. (2.5 DTPA, no Savinase), 21 d
[24] = laundry base formulation VIII. (2.5 DTPA, no Savinase), 28 d
[25] = laundry base formulation VIII. (2.5 DTPA, no Savinase), T0

Molecule | amylase activity, referring to reference formulation at time 0 (Amylase; [2]) | amylase activity, referring to reference formulation at time 0 (Amylase; [3]) | amylase activity, referring to reference formulation at time 0 (Amylase; [4]) | amylase activity, referring to reference formulation at time 0 (Amylase; [5]) | amylase activity, referring to reference formulation at time 0 (Amylase; [6]) | amylase activity, referring to reference formulation at time 0 (Amylase; [7]) | amylase activity, referring to reference formulation at time 0 (Amylase; [14]) | amylase activity, referring to reference formulation at time 0 (Amylase; [15]) | amylase activity, referring to reference formulation at time 0 (Amylase; [16]) | amylase activity, referring to reference formulation at time 0 (Amylase; [17]) | amylase activity, referring to reference formulation at time 0 (Amylase; [18]) | amylase activity, referring to reference formulation at time 0 (Amylase; [19]) | amylase activity, referring to reference formulation at time 0 (Amylase; [20]) | amylase activity, referring to reference formulation at time 0 (Amylase; [21]) | amylase activity, referring to reference formulation at time 0 (Amylase; [22]) | amylase activity, referring to reference formulation at time 0 (Amylase; [23]) | amylase activity, referring to reference formulation at time 0 (Amylase; [24]) | amylase activity, referring to reference formulation at time 0 (Amylase; [25]) | amylase activity, referring to reference formulation at time 0 ([1]; 3 d) | amylase activity, referring to reference formulation at time 0 ([1]; 7 d) | further results
CCOC(=O)CC(O)(CC(=O)OCC)C(=O)OCC [A.1, Triethylcitrate] | 98 | 90 | 85 | 78 | 70 | 99 | 95 | 88 | 79 | 73 | 68 | 100 | 98 | 93 | 88 | 83 | 75 | 100 | 100 | 94 | amylase activity, referring to reference formulation at time 0 (Amylase; [8]): 98; amylase activity, referring to reference formulation at time 0 (Amylase; [9]): 91; amylase activity, referring to reference formulation at time 0 (Amylase; [10]): 86; amylase activity, referring to reference formulation at time 0 (Amylase; [11]): 81; amylase activity, referring to reference formulation at time 0 (Amylase; [12]): 73; amylase activity, referring to reference formulation at time 0 (Amylase; [13]): 100; amylase activity, referring to reference formulation at time 0 ([1]; 14 d): 90; amylase activity, referring to reference formulation at time 0 ([1]; 21 d): 84; amylase activity, referring to reference formulation at time 0 ([1]; 28 d): 77; amylase activity, referring to reference formulation at time 0 ([1]; 42 d): 65; amylase activity, referring to reference formulation at time 0 ([1]; T0): 100
CCCOC(=O)CC(O)(CC(=O)OCCC)C(=O)OCCC [A.2, Tripropylcitrate] | 93 | 85 | 81 | 72 | 63 | 100 |  |  |  |  |  |  | 94 | 87 | 83 | 77 | 69 | 99 | 100 | 97 | amylase activity, referring to reference formulation at time 0 (Amylase; [8]): 94; amylase activity, referring to reference formulation at time 0 (Amylase; [9]): 86; amylase activity, referring to reference formulation at time 0 (Amylase; [10]): 80; amylase activity, referring to reference formulation at time 0 (Amylase; [11]): 74; amylase activity, referring to reference formulation at time 0 (Amylase; [12]): 65; amylase activity, referring to reference formulation at time 0 (Amylase; [13]): 101; amylase activity, referring to reference formulation at time 0 ([1]; 14 d): 93; amylase activity, referring to reference formulation at time 0 ([1]; 21 d): 87; amylase activity, referring to reference formulation at time 0 ([1]; 28 d): 83; amylase activity, referring to reference formulation at time 0 ([1]; 42 d): 69; amylase activity, referring to reference formulation at time 0 ([1]; T0): 102
CCOC(=O)CC(CC(=O)OCC)(OC(C)=O)C(=O)OCC [A.5, Acetyltriethylcitrate] | 91 | 78 | 69 | 61 | 53 | 98 | 92 | 81 | 72 | 66 | 61 | 98 | 93 | 83 | 74 | 67 | 64 | 100 |  |  | 
Diethylcitrate [A.7] |  |  |  |  |  |  | 90 | 82 | 69 | 62 | 56 | 99 |  |  |  |  |  |  | 94 | 86 | amylase activity, referring to reference formulation at time 0 ([1]; 14 d): 82; amylase activity, referring to reference formulation at time 0 ([1]; 21 d): 72; amylase activity, referring to reference formulation at time 0 ([1]; 28 d): 64; amylase activity, referring to reference formulation at time 0 ([1]; 42 d): 53; amylase activity, referring to reference formulation at time 0 ([1]; T0): 99
